This passage reports IC50 results from patent US20260028365A1 (BIOGEN MA INC., priority 2022, published 2026).

What is called IC50 is the concentration at which inhibition is half-maximal. Low readings indicate greater potency, high ones weaker potency.

The target in one assay is Tyk2 (Homo sapiens (Human), UniProt P29597). Kind of assay: pSTAT4 Cell Assay (MSD, NK92 cells). It counts as cell-based.
Chain of Tyk2 (P29597 whole entry): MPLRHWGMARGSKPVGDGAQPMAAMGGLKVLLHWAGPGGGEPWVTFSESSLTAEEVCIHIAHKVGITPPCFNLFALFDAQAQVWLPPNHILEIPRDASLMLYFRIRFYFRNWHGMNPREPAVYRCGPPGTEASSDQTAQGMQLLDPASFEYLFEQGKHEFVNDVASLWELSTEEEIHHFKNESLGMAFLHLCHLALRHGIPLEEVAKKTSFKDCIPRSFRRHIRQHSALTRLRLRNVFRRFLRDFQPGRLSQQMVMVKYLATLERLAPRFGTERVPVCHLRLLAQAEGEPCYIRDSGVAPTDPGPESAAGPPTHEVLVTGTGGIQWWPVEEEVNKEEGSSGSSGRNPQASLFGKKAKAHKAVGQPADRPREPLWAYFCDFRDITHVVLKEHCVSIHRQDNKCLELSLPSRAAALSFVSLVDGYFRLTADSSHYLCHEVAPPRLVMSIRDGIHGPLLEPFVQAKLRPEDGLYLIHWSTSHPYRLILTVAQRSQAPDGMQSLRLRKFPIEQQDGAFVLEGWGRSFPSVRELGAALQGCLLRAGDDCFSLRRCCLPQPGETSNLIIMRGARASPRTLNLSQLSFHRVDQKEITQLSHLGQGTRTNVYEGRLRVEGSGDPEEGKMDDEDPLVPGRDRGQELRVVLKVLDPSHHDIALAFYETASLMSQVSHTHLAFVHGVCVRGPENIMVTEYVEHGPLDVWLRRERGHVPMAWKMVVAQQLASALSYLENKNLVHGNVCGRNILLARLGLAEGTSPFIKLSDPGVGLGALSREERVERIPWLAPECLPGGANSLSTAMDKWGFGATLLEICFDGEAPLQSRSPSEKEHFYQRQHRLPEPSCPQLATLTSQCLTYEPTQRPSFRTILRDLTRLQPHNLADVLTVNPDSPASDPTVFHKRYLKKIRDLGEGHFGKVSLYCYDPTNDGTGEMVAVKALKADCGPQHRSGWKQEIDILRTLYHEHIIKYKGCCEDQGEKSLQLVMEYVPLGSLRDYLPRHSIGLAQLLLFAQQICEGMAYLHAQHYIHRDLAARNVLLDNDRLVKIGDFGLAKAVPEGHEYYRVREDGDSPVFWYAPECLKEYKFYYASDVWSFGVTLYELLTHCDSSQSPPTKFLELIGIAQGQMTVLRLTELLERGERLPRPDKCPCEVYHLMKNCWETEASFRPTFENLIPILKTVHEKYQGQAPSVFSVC
Conditions: not given
In the case of `CCc1cc(Nc2cc(NC(C)=O)ncc2-c2cc(CN3C[C@@H]4C[C@H]3CO4)ncn2)nc(C(C)(F)F)n1` [Example 905, N-(5-(6-(((1S,4S)-2-oxa-5-azabicyclo[2.2.1]heptan-5-yl)methyl)pyrimidin-4-yl)-4-((2-(1,1-difluoroethyl)-6-ethylpyrimidin-4-yl)amino)pyridin-2-yl)acetamide], the IC50 is 10 to 100 nM. Compound `CCc1cc(Nc2cc(NC(C)=O)ncc2-c2ccc(F)c(CN3C[C@@H]4C[C@H]3CO4)n2)nc(C(C)(F)F)n1` [Example 906, N-(6-(((1S,4S)-2-oxa-5-azabicyclo[2.2.1]heptan-5-yl)methyl)-4′-((2-(1,1-difluoroethyl)-6-ethylpyrimidin-4-yl)amino)-5-fluoro-[2,3′-bipyridin]-6′-yl)acetamide] displayed an IC50 of at most 10 nM. `CCc1cc(Nc2cc(NC(C)=O)ncc2-c2nccc(CN3C[C@H]4C[C@@H]3CO4)n2)nc(C(C)(F)F)n1` [Example 907, N-(5-(4-(((1R,4R)-2-oxa-5-azabicyclo[2.2.1]heptan-5-yl)methyl)pyrimidin-2-yl)-4-((2-(1,1-difluoroethyl)-6-ethylpyrimidin-4-yl)amino)pyridin-2-yl)acetamide] returned an IC50 of 10 to 100 nM.

With `CCc1cc(Nc2cc(NC(C)=O)ncc2-c2ccc(F)c(CN3C[C@H]4C[C@@H]3CO4)n2)nc(C(C)(F)F)n1` [Example 908, N-(6-(((1R,4R)-2-oxa-5-azabicyclo[2.2.1]heptan-5-yl)methyl)-4′-((2-(1,1-difluoroethyl)-6-ethylpyrimidin-4-yl)amino)-5-fluoro-[2,3′-bipyridin]-6′-yl)acetamide], the half-inhibitory concentration (IC50) is at most 10 nM. On the same count and under the same terms, as for `CCc1cc(Nc2cc(NC(C)=O)ncc2-c2ccnc(CN3CCOCC3)n2)nc(C(C)(F)F)n1` [Example 909, N-(4-((2-(1,1-difluoroethyl)-6-ethylpyrimidin-4-yl)amino)-5-(2-(morpholinomethyl)pyrimidin-4-yl)pyridin-2-yl)acetamide], the figure is 100 to 1000 nM; as for `CCc1cc(Nc2cc(NC(C)=O)ncc2-c2ccc(F)c(CN3CCOCC3)n2)nc(C(C)(F)F)n1` [Example 910, N-(4′-((2-(1,1-difluoroethyl)-6-ethylpyrimidin-4-yl)amino)-5-fluoro-6-(morpholinomethyl)-[2,3′-bipyridin]-6′-yl)acetamide], at most 10 nM. `CCc1cc(Nc2cc(NC(C)=O)ncc2-c2ccc(CN3C[C@H]4C[C@@H](C3)O4)cn2)nc(C(C)(F)F)n1` [Example 912, N-(5-(((1R,5S)-6-oxa-3-azabicyclo[3.1.1]heptan-3-yl)methyl)-4′-((2-(1,1-difluoroethyl)-6-ethylpyrimidin-4-yl)amino)-[2,3′-bipyridin]-6′-yl)acetamide]: the IC50 was at most 10 nM. Same read-out and setting: with `CCc1cc(Nc2cc(NC(C)=O)ncc2-c2ccnc(CN3C[C@H]4C[C@@H](C3)O4)n2)nc(C(C)(F)F)n1` [Example 913, N-(5-(2-(((1R,5S)-6-oxa-3-azabicyclo[3.1.1]heptan-3-yl)methyl)pyrimidin-4-yl)-4-((2-(1,1-difluoroethyl)-6-ethylpyrimidin-4-yl)amino)pyridin-2-yl)acetamide] the figure was 10 to 100 nM; with `CCc1cc(Nc2cc(NC(C)=O)ncc2-c2ccc(F)c(CN3C[C@H]4C[C@@H](C3)O4)n2)nc(C(C)(F)F)n1` [Example 915, N-(6-(((1R,5S)-6-oxa-3-azabicyclo[3.1.1]heptan-3-yl)methyl)-4′-((2-(1,1-difluoroethyl)-6-ethylpyrimidin-4-yl)amino)-5-fluoro-[2,3′-bipyridin]-6′-yl)acetamide], at most 10 nM; with `CC(=O)Nc1cc(Nc2cc(C)nc(C(C)(F)F)n2)c(-c2ccc(P(C)(C)=O)cn2)cn1` [Example 916, N-(4′-((2-(1,1-difluoroethyl)-6-methylpyrimidin-4-yl)amino)-5-(dimethylphosphoryl)-[2,3′-bipyridin]-6′-yl)acetamide], at most 10 nM. In the case of `CC(=O)Nc1cc(Nc2cc(C)nc(C(C)(F)F)n2)c(-c2ccc(P(C)(C)=O)nn2)cn1` [Example 917, N-(4-((2-(1,1-difluoroethyl)-6-methylpyrimidin-4-yl)amino)-5-(6-(dimethylphosphoryl)pyridazin-3-yl)pyridin-2-yl)acetamide], the IC50 was 10 to 100 nM. For the compound `CC(=O)Nc1cc(Nc2ccnc(C(C)(F)F)n2)c(-c2csc(CC#N)n2)cn1` [Example 922, N-(5-(2-(cyanomethyl)thiazol-4-yl)-4-((2-(1,1-difluoroethyl)pyrimidin-4-yl)amino)pyridin-2-yl)acetamide], the IC50 is at most 10 nM.

In a further assay the target is JH2 domain of human Tyk2 (Homo sapiens (Human), UniProt P29597). Kind of assay: JH2 Biochemical Assay (TR-FRET probe displacement). In kind it is binding. Particulars: TR-FRET probe displacement, JH2 domain of human Tyk2. The procedure: The inhibitory potency of compounds of the disclosure against the kinase activity of recombinantly generated JH2 domain of human Tyk2 was evaluated in a plate-based assay using a TR-FRET assay platform. Briefly, 2 nM of recombinant JH2 domain [10×His-tagged TYK2 JH2 domain (amino acid 575-876)] was combined with 2 nM probe ((S)-6-amino-9-(2-carboxy-4-((1-(3-(8-methyl-5-(methylamino)-8H-imidazo[4,5-d]thiazolo[5,4-b]pyridin-2-yl)phenyl)ethyl)carbamoyl)phenyl)-3-iminio-5-sulfo-3H-xanthene-4-sulfonate), 0.1 nM Tb-labeled anti-His antibody, and compounds of disclosure for 60 minutes. Compounds are tested at either 10 μM or 1 μM top concentration, 10 points of 3-fold dilution. The TR-FRET signal inversely correlates to the amount of probe displaced by compounds and signal was calculated by taking the ratio of fluorescence at 520 nm and 495 nm. The data was normalized and the percent activity versus log concentration of compound was fitted with a 4-parameter logistic model to generate IC50 curves.
Chain of JH2 domain of human Tyk2 (P29597 575-876): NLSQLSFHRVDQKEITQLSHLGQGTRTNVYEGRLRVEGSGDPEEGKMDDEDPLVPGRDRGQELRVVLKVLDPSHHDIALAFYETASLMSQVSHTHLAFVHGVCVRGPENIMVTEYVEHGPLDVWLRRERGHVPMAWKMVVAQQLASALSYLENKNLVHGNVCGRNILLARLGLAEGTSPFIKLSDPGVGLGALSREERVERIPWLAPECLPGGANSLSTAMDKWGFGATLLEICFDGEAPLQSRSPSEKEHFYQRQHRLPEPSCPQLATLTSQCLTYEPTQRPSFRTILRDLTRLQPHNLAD
`CCOc1cnc(NC(=O)C2CC2)cc1Nc1cc(C)nc(C(C)(F)F)n1` [Example 28, N-(4-((2-(1,1-difluoroethyl)-6-methylpyrimidin-4-yl)amino)-5-ethoxypyridin-2-yl)cyclopropanecarboxamide] yielded an IC50 of 10 to 100 nM.

With `CCOc1cnc(NC(C)=O)cc1Nc1cc(C(C)(F)F)ncn1` [Example 33, N-(4-((6-(1,1-difluoroethyl)pyrimidin-4-yl)amino)-5-ethoxypyridin-2-yl)acetamide], the IC50 lay in the range of 100 to 1000 nM.

In turn, `CC(=O)Nc1cc(Nc2cc(C)nc(C(C)(F)F)n2)c(C(C)C)cn1` [Example 44, N-(4-((2-(1,1-difluoroethyl)-6-methylpyrimidin-4-yl)amino)-5-isopropylpyridin-2-yl)acetamide] gave an IC50 of 10 to 100 nM.

`CCOc1cnc(NC(C)=O)cc1N(C)c1cc(C)nc(C(C)(F)F)n1` [Example 54, N-(4-((2-(1,1-difluoroethyl)-6-methylpyrimidin-4-yl)(methyl)amino)-5-ethoxypyridin-2-yl)acetamide] returned an IC50 of at least 1000 nM. Still for that read-out and setting: with `CC(=O)Nc1cc(Nc2cc(C)nc(C(C)(F)F)n2)c(CCCN(C)C)cn1` [Example 151, N-(4-((2-(1,1-difluoroethyl)-6-methylpyrimidin-4-yl)amino)-5-(3-(dimethylamino)propyl)pyridin-2-yl)acetamide] the figure was 100 to 1000 nM; with `COCCCc1cnc(NC(C)=O)cc1Nc1cc(C)nc(C(C)(F)F)n1` [Example 152, N-(4-((2-(1,1-difluoroethyl)-6-methylpyrimidin-4-yl)amino)-5-(3-methoxypropyl)pyridin-2-yl)acetamide], 10 to 100 nM; with `CCc1cc(Nc2cc(NC(C)=O)ncc2-c2noc(C)n2)nc(C(C)(F)F)n1` [Example 170, N-(4-((2-(1,1-difluoroethyl)-6-ethylpyrimidin-4-yl)amino)-5-(5-methyl-1,2,4-oxadiazol-3-yl)pyridin-2-yl)acetamide], 10 to 100 nM. Consider `CC(=O)Nc1cc(Nc2ccnc(C(C)(F)F)c2)c(-c2cc(C)ncn2)cn1` [Example 199, N-(4-((2-(1,1-difluoroethyl)pyridin-4-yl)amino)-5-(6-methylpyrimidin-4-yl)pyridin-2-yl)acetamide], for which the IC50 was in the range of 10 to 100 nM.

`CCc1cc(Nc2cc(NC(C)=O)ncc2-c2ccc(OC)nn2)nc(C(C)(F)F)n1` [Example 220, N-(4-((2-(1,1-difluoroethyl)-6-ethylpyrimidin-4-yl)amino)-5-(6-methoxypyridazin-3-yl)pyridin-2-yl)acetamide] yielded an IC50 of at most 10 nM. On the same count and under the same terms, with `CC(=O)Nc1cc(Nc2cc(C)nc(C(C)(F)F)n2)c(-c2cc(C(C)(C)C#N)ncn2)cn1` [Example 241, N-(5-(6-(2-cyanopropan-2-yl)pyrimidin-4-yl)-4-((2-(1,1-difluoroethyl)-6-methylpyrimidin-4-yl)amino)pyridin-2-yl)acetamide] the figure was 100 to 1000 nM. The same measure, in the same setting: as for `CC(=O)Nc1cc(Nc2cc(C)nc(C(C)(F)F)n2)c(-c2cc(N3CCN(C)CC3)ncn2)cn1` [Example 248, N-(4-((2-(1,1-difluoroethyl)-6-methylpyrimidin-4-yl)amino)-5-(6-(4-methylpiperazin-1-yl)pyrimidin-4-yl)pyridin-2-yl)acetamide], the figure is 10 to 100 nM; as for `CC(=O)Nc1cc(Nc2cc(C)nc(C(C)(F)F)n2)c(-c2nc3c(s2)CN(CC#N)CC3)cn1` [Example 285, N-(5-(5-(cyanomethyl)-4,5,6,7-tetrahydrothiazolo[5,4-c]pyridin-2-yl)-4-((2-(1,1-difluoroethyl)-6-methylpyrimidin-4-yl)amino)pyridin-2-yl)acetamide], at most 10 nM. Take `CC(=O)Nc1cc(Nc2cc(C)nc(C(C)(F)F)n2)c(OCCOC2CC2)cn1` [Example 316, N-(5-(2-cyclopropoxyethoxy)-4-((2-(1,1-difluoroethyl)-6-methylpyrimidin-4-yl)amino)pyridin-2-yl)acetamide]: the IC50 is at most 10 nM.

In turn, `CC(=O)Nc1cc(Nc2cc(C)nc(C(C)(F)F)n2)c(OCC2(C)CCOCC2)cn1` [Example 317, N-(4-((2-(1,1-difluoroethyl)-6-methylpyrimidin-4-yl)amino)-5-((4-methyltetrahydro-2H-pyran-4-yl)methoxy)pyridin-2-yl)acetamide] showed an IC50 of at most 10 nM.

For the compound `CC(=O)Nc1cc(Nc2cc(C)nc(C(C)(F)F)n2)c(OCc2ncsc2C)cn1` [Example 329, N-(4-((2-(1,1-difluoroethyl)-6-methylpyrimidin-4-yl)amino)-5-((5-methylthiazol-4-yl)methoxy)pyridin-2-yl)acetamide], the IC50 was 10 to 100 nM. Compound `CC(=O)Nc1cc(Nc2cc(C)nc(C(C)(F)F)n2)c(OCC2(CF)CCOCC2)cn1` [Example 340, N-(4-((2-(1,1-difluoroethyl)-6-methylpyrimidin-4-yl)amino)-5-((4-(fluoromethyl)tetrahydro-2H-pyran-4-yl)methoxy)pyridin-2-yl)acetamide] showed an IC50 of 10 to 100 nM.
